Drawing on patent publication US8975398B2, “NAMPT inhibitors” (AbbVie Inc., priority 2012, dated 2015), this text covers IC50 for 27 compounds.

In one experiment the target is NAMPT (Homo sapiens, UniProt P43490). Kind of experiment: Time-Resolved Fluorescence Resonance Energy Transfer (TR-FRET) Binding Assay of NAMPT with PRPP. The settings on record: 2 nM NAMPT, 2 nM probe, 200 uM PRPP and 2.5 mM ATP, equilibrated 16 hours. Summed up: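 Final mix: 2 nM NAMPT, 2 nM probe, 1 nM Tb-anti-His antibody, 200 uM PRPP, 2.5 mM ATP, 2% DMSO in 1× assay buffer. Equilibrated 16 hours before TR-FRET read, allowing possible enzymatic modification of compounds.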
Sequence of NAMPT (P43490 whole entry): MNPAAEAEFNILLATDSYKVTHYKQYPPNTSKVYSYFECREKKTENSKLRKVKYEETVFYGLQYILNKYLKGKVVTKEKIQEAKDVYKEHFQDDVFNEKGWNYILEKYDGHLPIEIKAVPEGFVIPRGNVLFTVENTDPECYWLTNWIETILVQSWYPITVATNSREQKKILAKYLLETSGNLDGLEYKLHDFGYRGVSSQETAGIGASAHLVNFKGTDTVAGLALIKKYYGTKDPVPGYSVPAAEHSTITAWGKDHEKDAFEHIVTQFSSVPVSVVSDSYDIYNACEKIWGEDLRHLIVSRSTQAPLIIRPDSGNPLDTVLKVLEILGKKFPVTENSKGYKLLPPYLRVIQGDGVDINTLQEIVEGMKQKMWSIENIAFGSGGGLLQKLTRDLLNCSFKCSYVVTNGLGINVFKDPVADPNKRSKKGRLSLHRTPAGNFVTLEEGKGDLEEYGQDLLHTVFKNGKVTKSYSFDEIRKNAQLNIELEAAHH
(In general: TR-FRET usually uses a lanthanide donor and a delayed reading to cut background.)

The target in experiment [1] is NAMPT (human, recombinant, C-terminally His-tagged) (Homo sapiens, UniProt P43490). Kind of experiment: Time-Resolved Fluorescence Resonance Energy Transfer (TR-FRET) Binding Assay of NAMPT. The settings on record: 6.8 nM NAMPT, 200 nM probe, equilibrated 3 hours, absence of substrates. The essentials:
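Recombinant C-terminally His-tagged human NAMPT (6.8 nM) incubated 3 h at room temperature with 200 nM Oregon Green 488–labelled nicotinamide-competitive probe and 1 nM Tb-anti-His antibody in HEPES pH 7.5, 2% DMSO. TR-FRET ratio Em520/Em495 normalized to controls; IC50 from four-parameter logistic fit.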

A further experiment has as its system PC3 cells. Kind of experiment: NAMPT Cell Proliferation Assay (Cell Titer Glo; also performed in the presence of 0.3 mM nicotinamide mononucleotide). The format is cell-based. The settings on record: 5 days incubation, cell viability by Cell Titer Glo. Here is the method:
NAMPT Cell Proliferation Assay
PC3 cells were seeded in 96-well black plates (Corning #3904) at 500 cells/well in 90 μl of RPMI media containing 10% heat-inactivated FBS and incubated overnight at 37° C. and 5% CO2 to allow cells to attach to wells. The following day, test compounds were serially diluted in neat DMSO to 1000× final concentrations prior to dilution with RPMI media to 10× and 1% DMSO. Ten μL of the 10× compounds were then transferred to wells containing cells to produce a dose response of 10-fold dilutions from 10 μM to 1×10^−5 μM. Cells were incubated for 5 days at 37° C. and 5% CO2, then cell viability was measured using Cell Titer Glo reagent (Promega #G7571). Percent inhibition values were calculated and fitted to a sigmoidal dose response curves using Assay Explorer software to determine IC50s.
In general terms: ATP-based viability assays read luminescence as a measure of living cells.

pIC50: −log10 of the molar value.

Sequence of NAMPT (human, recombinant, C-terminally His-tagged) (P43490 whole entry): as above

On to `O=C(Nc1ccc(C2CCN(C(=O)c3ccc(Cl)cc3Cl)CC2)cc1)C1CN(c2cccnn2)C1` [Example 362, N-{4-[1-(2,4-dichlorobenzoyl)piperidin-4-yl]phenyl}-1-(pyridazin-3-yl)azetidine-3-carboxamide], for which the values for the pIC50 (at NAMPT; in experiment [1]) were 9.08 and 7.82, respectively.

With `O=C(Nc1ccc(C2CCN(C(=O)c3cc(Cl)ccc3Cl)CC2)cc1)C1CN(c2cccnn2)C1` [Example 363, N-{4-[1-(2,5-dichlorobenzoyl)piperidin-4-yl]phenyl}-1-(pyridazin-3-yl)azetidine-3-carboxamide], the figures for the negative-log IC50 (pIC50) (at NAMPT; in experiment [1]) were 9.10 and 7.98, respectively.

Regarding `O=C(Nc1ccc(C2CCN(C(=O)c3ccc(Cl)c(Cl)c3)CC2)cc1)C1CN(c2cccnn2)C1` [Example 364, N-{4-[1-(3,4-dichlorobenzoyl)piperidin-4-yl]phenyl}-1-(pyridazin-3-yl)azetidine-3-carboxamide], the negative logarithm of the IC50 (pIC50) at NAMPT is 9.48; in experiment [1], 7.43. In the same order, the values of `O=C(Nc1ccc(C2CCN(C(=O)c3cc(Cl)cc(Cl)c3)CC2)cc1)C1CN(c2cccnn2)C1` [Example 365, N-{4-[1-(3,5-dichlorobenzoyl)piperidin-4-yl]phenyl}-1-(pyridazin-3-yl)azetidine-3-carboxamide] are 8.98 and 7.30. In the same order, the values of `O=C(Nc1ccc(C2CCN(C(=O)Cc3ccccc3F)CC2)cc1)C1CN(c2cccnn2)C1` [Example 366, N-(4-{1-[(2-fluorophenyl)acetyl]piperidin-4-yl}phenyl)-1-(pyridazin-3-yl)azetidine-3-carboxamide] are 9.17 and 7.45. In the same order, the values of `O=C(Nc1ccc(C2CCN(C(=O)Cc3cccc(F)c3)CC2)cc1)C1CN(c2cccnn2)C1` [Example 367, N-(4-{1-[(3-fluorophenyl)acetyl]piperidin-4-yl}phenyl)-1-(pyridazin-3-yl)azetidine-3-carboxamide] are 9.13 and 7.47. On to `O=C(Nc1ccc(C2CCN(C(=O)Cc3ccc(F)cc3)CC2)cc1)C1CN(c2cccnn2)C1` [Example 368, N-(4-{1-[(4-fluorophenyl)acetyl]piperidin-4-yl}phenyl)-1-(pyridazin-3-yl)azetidine-3-carboxamide], for which the results for the negative logarithm of the IC50 (pIC50) (on NAMPT; in experiment [1]) were 9.20 and 7.19, respectively. In the same order, the values of `O=C(Nc1ccc(C2CCN(C(=O)Cc3ccccc3Cl)CC2)cc1)C1CN(c2cccnn2)C1` [Example 369, N-(4-{1-[(2-chlorophenyl)acetyl]piperidin-4-yl}phenyl)-1-(pyridazin-3-yl)azetidine-3-carboxamide] are 9.32 and 7.74. In the same order, the values of `O=C(Nc1ccc(C2CCN(C(=O)Cc3ccc(Cl)cc3)CC2)cc1)C1CN(c2cccnn2)C1` [Example 370, N-(4-{1-[(4-chlorophenyl)acetyl]piperidin-4-yl}phenyl)-1-(pyridazin-3-yl)azetidine-3-carboxamide] are 9.26 and 7.52. In the same order, the values of `O=C(Nc1ccc(C2CCN(C(=O)Cc3ccc(C(F)(F)F)cc3)CC2)cc1)C1CN(c2cccnn2)C1` [Example 371, 1-(pyridazin-3-yl)-N-[4-(1-{[4-(trifluoromethyl)phenyl]acetyl}piperidin-4-yl)phenyl]azetidine-3-carboxamide] are 9.36 and 7.25. With `Cc1cc(C)cc(CC(=O)N2CCC(c3ccc(NC(=O)C4CN(c5cccnn5)C4)cc3)CC2)c1` [Example 372, N-(4-{1-[(3,5-dimethylphenyl)acetyl]piperidin-4-yl}phenyl)-1-(pyridazin-3-yl)azetidine-3-carboxamide], the results for the negative logarithm of the IC50 (pIC50) (at NAMPT; in experiment [1]) were 9.20 and 7.78, respectively. In the same order, the values of `O=C(Nc1ccc(C2CCN(C(=O)Cc3cc(F)ccc3F)CC2)cc1)C1CN(c2cccnn2)C1` [Example 373, N-(4-{1-[(2,5-difluorophenyl)acetyl]piperidin-4-yl}phenyl)-1-(pyridazin-3-yl)azetidine-3-carboxamide] are 9.24 and 7.65.

Take `O=C(Nc1ccc(C2CCN(C(=O)Cc3ccc(Cl)c(Cl)c3)CC2)cc1)C1CN(c2cccnn2)C1` [Example 374, N-(4-{1-[(3,4-dichlorophenyl)acetyl]piperidin-4-yl}phenyl)-1-(pyridazin-3-yl)azetidine-3-carboxamide]: the figures for the pIC50 (on NAMPT; in experiment [1]) were 9.01 and 7.62, respectively. In the same order, the values of `O=C(Nc1ccc(C2CCN(C(=O)c3ccoc3)CC2)cc1)C1CN(c2cccnn2)C1` [Example 375, N-{4-[1-(furan-3-ylcarbonyl)piperidin-4-yl]phenyl}-1-(pyridazin-3-yl)azetidine-3-carboxamide] are 9.17 and 8.17.

`O=C(Nc1ccc(C2CCN(C(=O)c3cccs3)CC2)cc1)C1CN(c2cccnn2)C1` [Example 376, 1-(pyridazin-3-yl)-N-{4-[1-(thiophen-2-ylcarbonyl)piperidin-4-yl]phenyl}azetidine-3-carboxamide]: the negative logarithm of the IC50 (pIC50) at NAMPT is 9.33; in experiment [1], 8.49. As to `Cc1ccc(C(=O)N2CCC(c3ccc(NC(=O)C4CN(c5cccnn5)C4)cc3)CC2)s1` [Example 377, N-(4-{1-[(5-methylthiophen-2-yl)carbonyl]piperidin-4-yl}phenyl)-1-(pyridazin-3-yl)azetidine-3-carboxamide], the negative-log IC50 (pIC50) on NAMPT was 9.20; in experiment [1], 7.79. In the same order, the values of `Cc1cnc(C(=O)N2CCC(c3ccc(NC(=O)C4CN(c5cccnn5)C4)cc3)CC2)cn1` [Example 378, N-(4-{1-[(5-methylpyrazin-2-yl)carbonyl]piperidin-4-yl}phenyl)-1-(pyridazin-3-yl)azetidine-3-carboxamide] are 9.20 and 7.11. In the same order, the values of `CC1(C(=O)N2CCC(c3ccc(NC(=O)C4CN(c5cccnn5)C4)cc3)CC2)CC1` [Example 379, N-(4-{1-[(1-methylcyclopropyl)carbonyl]piperidin-4-yl}phenyl)-1-(pyridazin-3-yl)azetidine-3-carboxamide] are 9.36 and 7.80. In the same order, the values of `CCOCCC(=O)N1CCC(c2ccc(NC(=O)C3CN(c4cccnn4)C3)cc2)CC1` [Example 380, N-{4-[1-(3-ethoxypropanoyl)piperidin-4-yl]phenyl}-1-(pyridazin-3-yl)azetidine-3-carboxamide] are 9.05 and 6.96. On to `O=C(Nc1ccc(C2CCN(C(=O)C3(c4ccccc4)CC3)CC2)cc1)C1CN(c2cccnn2)C1` [Example 381, N-(4-{1-[(1-phenylcyclopropyl)carbonyl]piperidin-4-yl}phenyl)-1-(pyridazin-3-yl)azetidine-3-carboxamide], for which the pIC50 is 8.95 at NAMPT and 7.82 in experiment [1]. In the same order, the values of `O=C(Nc1ccc(C2CCN(C(=O)CSc3ncccn3)CC2)cc1)C1CN(c2cccnn2)C1` [Example 382, 1-(pyridazin-3-yl)-N-(4-{1-[(pyrimidin-2-ylsulfanyl)acetyl]piperidin-4-yl}phenyl)azetidine-3-carboxamide] are 9.18 and 7.18. With `CC(=O)N1CCC(C(=O)N2CCC(c3ccc(NC(=O)C4CN(c5cccnn5)C4)cc3)CC2)CC1` [Example 383, N-(4-{1-[(1-acetylpiperidin-4-yl)carbonyl]piperidin-4-yl}phenyl)-1-(pyridazin-3-yl)azetidine-3-carboxamide], the values for the negative logarithm of the IC50 (pIC50) (on NAMPT; in experiment [1]) were 9.07 and 6.99, respectively. Regarding `O=C(Nc1ccc(C2CCN(C(=O)Cc3cc(F)cc(F)c3)CC2)cc1)C1CN(c2cccnn2)C1` [Example 384, N-(4-{1-[(3,5-difluorophenyl)acetyl]piperidin-4-yl}phenyl)-1-(pyridazin-3-yl)azetidine-3-carboxamide], the negative-log IC50 (pIC50) on NAMPT is 9.30; in experiment [1], 7.54. `CC(=O)N[C@@H](CC(C)C)C(=O)N1CCC(c2ccc(NC(=O)C3CN(c4cccnn4)C3)cc2)CC1` [Example 385, N-{4-[1-(N-acetyl-L-leucyl)piperidin-4-yl]phenyl}-1-(pyridazin-3-yl)azetidine-3-carboxamide]: the negative-log IC50 (pIC50) is 8.91 on NAMPT and 7.26 in experiment [1]. `CC(C)C(=O)N1CCC(c2ccc(NC(=O)C3CN(c4ccnnc4)C3)cc2)CC1` [Example 528, N-{4-[1-(2-methylpropanoyl)piperidin-4-yl]phenyl}-1-(pyridazin-4-yl)azetidine-3-carboxamide]: the figures for the pIC50 (on NAMPT; in experiment [1]) were 7.76 and 7.58, respectively.

In the case of `Cc1ccccc1C(=O)N1CC(c2ccc(NC(=O)[C@H]3CCN(c4cccnn4)C3)cc2)C1` [Example 791], the pIC50 with PC3 cells is 8.13. For the compound `CC1(Cn2cc(-c3ccc(NC(=O)C4CN(c5cccnn5)C4)cc3)cn2)CCNCC1` [Example 873, N-(4-{1-[(4-methylpiperidin-4-yl)methyl]-1H-pyrazol-4-yl}phenyl)-1-(pyridazin-3-yl)azetidine-3-carboxamide], the negative-log IC50 (pIC50) in the experiment on PC3 cells (Homo sapiens, PC-3, 120 h) was 6.17.

Usually pIC50 stands for −log10 of the IC50, conventionally taken in molar units.
